# Experimental data from patent US4563472A, “Iodoallyl and iodopropargyl substituted tetrazoles and anti-microbial compositions thereof” (Meiji Seika Kaisha, Ltd., priority 1982, dated 1986).
# Tests used:
# Type in all cases: cell-based
# [1] = system: Aspergillus fumigatus IAM 2621; test: Antifungal Activity (in Industrial Field), MIC; details: IAM2621, read-out: Minimal Inhibitory Conc. (MIC)
# [2] = system: Trichophyton interdigitale; test: Antifungal Activity (in Medicinal Field), MIC; details: read-out: Minimal Inhibitory Conc. (MIC)
# Erwinia carotovora = test: Antibacterial and Antifungal Activities (in Agricultural Field), MIC; details: Pectobacterium carotovorum, read-out: Minimal Inhibitory Conc. (MIC)
# Botrytis cinerea = test: as above; details: read-out: Minimal Inhibitory Conc. (MIC)
# Gibberella fujikuroi = test: as above; details: Fusarium fujikuroi, read-out: Minimal Inhibitory Conc. (MIC)
# [3] = system: Pseudomonas cepacia M-0527; test: Antibacterial Activity (in medicinal field), MIC; details: Burkholderia cepacia, M0527, read-out: Minimal Inhibitory Conc. (MIC)
# [4] = system: Penicillium luteum ATCC 9644; test: Antifungal Activity (in Industrial Field), MIC; details: Ascospirella lutea, ATCC9644, read-out: Minimal Inhibitory Conc. (MIC)
# Mucor spinescens IAM Mu3 = test: Antifungal Activity (in Industrial Field), MIC; details: IAMMU3, read-out: Minimal Inhibitory Conc. (MIC)
# [5] = system: Trichoderma T-1 ATCC 9645; test: Antifungal Activity (in Industrial Field), MIC; details: ATCC9645, read-out: Minimal Inhibitory Conc. (MIC)
# [6] = system: Aspergillus fumigatus Saito; test: Antifungal Activity (in Medicinal Field), MIC; details: read-out: Minimal Inhibitory Conc. (MIC)
# Pellicularia filamentosa = test: Antibacterial and Antifungal Activities (in Agricultural Field), MIC; details: read-out: Minimal Inhibitory Conc. (MIC)
# Alternaria kikuchiana = test: as above; details: read-out: Minimal Inhibitory Conc. (MIC)
# [7] = system: Cryptococcus neoformans Cr-1; test: Antifungal Activity (in Medicinal Field), MIC; details: CR1, read-out: Minimal Inhibitory Conc. (MIC)
# Candida alubicans GA-24 = test: Antifungal Activity (in Medicinal Field), MIC; details: GA24; Candida alubicans GA-24; read-out: Minimal Inhibitory Conc. (MIC)
# [8] = system: Trichophyton metagrophytes 530324; test: Antifungal Activity (in Medicinal Field), MIC; details: Trichophyton metagrophytes 530324; read-out: Minimal Inhibitory Conc. (MIC)
# [9] = system: Colletotrichum lagenarium; test: Antibacterial and Antifungal Activities (in Agricultural Field), MIC; details: Colletotrichum orbiculare, read-out: Minimal Inhibitory Conc. (MIC)
# [10] = system: Pullularia pullulans IAM F-24; test: Antifungal Activity (in Industrial Field), MIC; details: IAMF24; Pullularia pullulans IAM F-24; read-out: Minimal Inhibitory Conc. (MIC)
# Diaporithe citri = test: Antibacterial and Antifungal Activities (in Agricultural Field), MIC; details: read-out: Minimal Inhibitory Conc. (MIC)
# [11] = system: Rhizopus nigricans S.N. 32; test: Antifungal Activity (in Industrial Field), MIC; details: Rhizopus stolonifer, read-out: Minimal Inhibitory Conc. (MIC)
# [12] = system: Aspergillus flavus ATCC 6275; test: Antifungal Activity (in Industrial Field), MIC; details: ATCC6275, read-out: Minimal Inhibitory Conc. (MIC)
# Glomerella cingulata = test: Antibacterial and Antifungal Activities (in Agricultural Field), MIC; details: Colletotrichum gloeosporioides, read-out: Minimal Inhibitory Conc. (MIC)
# [13] = system: Pseudomonas syringae pv. tabaci; test: as above; details: read-out: Minimal Inhibitory Conc. (MIC)
# [14] = system: Pseudomonas maltophilia M-0627; test: Antibacterial Activity (in medicinal field), MIC; details: Stenotrophomonas maltophilia, M0627, read-out: Minimal Inhibitory Conc. (MIC)
# [15] = system: Xanthomonas campestris pv. citri; test: Antibacterial and Antifungal Activities (in Agricultural Field), MIC; details: read-out: Minimal Inhibitory Conc. (MIC)
# [16] = system: Chaetomium globosum ATCC 6205; test: Antifungal Activity (in Industrial Field), MIC; details: ATCC6205, read-out: Minimal Inhibitory Conc. (MIC)
# Phricularia oryzae = test: Antibacterial and Antifungal Activities (in Agricultural Field), MIC; details: read-out: Minimal Inhibitory Conc. (MIC)
# Proteus vulgaris OX-19 = test: Antibacterial Activity (in medicinal field), MIC; details: OX19, read-out: Minimal Inhibitory Conc. (MIC)
# [17] = system: Serratia marcescens MB-3848; test: Antibacterial Activity (in medicinal field), MIC; details: MB3848, read-out: Minimal Inhibitory Conc. (MIC)
# [18] = system: Aspergillus terreus PQMD 82 j; test: Antifungal Activity (in Industrial Field), MIC; details: PQMD82J, read-out: Minimal Inhibitory Conc. (MIC)
# [19] = system: Bacillus anthracis No. 119; test: microbe, parasite or virus in culture; details: NO.119, read-out: Minimal Inhibitory Conc. (MIC)
# [20] = system: Corynebacterium michiganense; test: Antibacterial and Antifungal Activities (in Agricultural Field), MIC; details: Clavibacter michiganensis; Corynebacterium michiganense; read-out: Minimal Inhibitory Conc. (MIC)
# Cochliobolus miyabeanus = test: as above; details: Bipolaris oryzae, read-out: Minimal Inhibitory Conc. (MIC)
# [21] = system: Klebsiella pneumoniae PCI-602; test: Antibacterial Activity (in medicinal field), MIC; details: PCI602, read-out: Minimal Inhibitory Conc. (MIC)
# Salmonella typhi O-901-W = test: Antibacterial Activity (in medicinal field), MIC; details: Salmonella enterica, read-out: Minimal Inhibitory Conc. (MIC)
# [22] = system: Cladosporium herbarum IAM F-517; test: Antifungal Activity (in Industrial Field), MIC; details: IAMF517, read-out: Minimal Inhibitory Conc. (MIC)
# [23] = system: Escherichia coli NIHJ JC-2; test: Antibacterial Activity (in medicinal field), MIC; details: NIHJJC2, read-out: Minimal Inhibitory Conc. (MIC)
# [24] = system: Xanthomonas campestris pv. oryzae; test: microbe, parasite or virus in culture; details: read-out: Minimal Inhibitory Conc. (MIC)
# [25] = system: Shigella sonnei EW 33 Type I; test: Antibacterial Activity (in medicinal field), MIC; details: EW33TYPEI; Shigella sonnei EW 33 Type I; read-out: Minimal Inhibitory Conc. (MIC)
# [26] = system: Staphylococcus aureus 209P JC-1; test: Antibacterial Activity (in medicinal field), MIC; details: Staphylococcus aureus, 209P, read-out: Minimal Inhibitory Conc. (MIC)
# [27] = system: Fusarium oxysporum f. lycopersici; test: Antibacterial and Antifungal Activities (in Agricultural Field), MIC; details: read-out: Minimal Inhibitory Conc. (MIC)
# [28] = system: Staphylococcus epidermidis ATCC 14990; test: Antibacterial Activity (in medicinal field), MIC; details: Staphylococcus epidermidis, ATCC14990, read-out: Minimal Inhibitory Conc. (MIC)
# [29] = system: Staphylococcus faecalis ATCC 8043; test: Antibacterial Activity (in medicinal field), MIC; details: ATCC8043, read-out: Minimal Inhibitory Conc. (MIC)
compound,measurement,setting,value
"IC(I)=C(I)Cn1ncnn1 [2-(2',3',3'-triiodoallyl)tetrazole]",MIC,[1],6.25 µg/mL
same,MIC,[2],0.09 µg/mL
same,MIC,Erwinia carotovora,> 100 µg/mL
same,MIC,Botrytis cinerea,0.39 µg/mL
same,MIC,Gibberella fujikuroi,0.39 µg/mL
same,MIC,[3],1.56 µg/mL
same,MIC,[4],6.25 µg/mL
same,MIC,Mucor spinescens IAM Mu3,1.56 µg/mL
same,MIC,[5],3.13 µg/mL
same,MIC,[6],0.19 µg/mL
same,MIC,Pellicularia filamentosa,50 µg/mL
same,MIC,Alternaria kikuchiana,3.13 µg/mL
same,MIC,[7],0.78 µg/mL
same,MIC,Candida alubicans GA-24,0.19 µg/mL
same,MIC,[8],0.09 µg/mL
same,MIC,[9],0.78 µg/mL
same,MIC,[10],0.76 µg/mL
same,MIC,Diaporithe citri,0.78 µg/mL
same,MIC,[11],3.13 µg/mL
same,MIC,[12],0.78 µg/mL
same,MIC,Glomerella cingulata,0.39 µg/mL
same,MIC,[13],> 100 µg/mL
same,MIC,[14],1.56 µg/mL
same,MIC,[15],25 µg/mL
same,MIC,[16],12.5 µg/mL
same,MIC,Phricularia oryzae,3.13 µg/mL
same,MIC,Proteus vulgaris OX-19,12.5 µg/mL
same,MIC,[17],6.25 µg/mL
same,MIC,[18],0.78 µg/mL
same,MIC,[19],1.56 µg/mL
same,MIC,[20],12.5 µg/mL
same,MIC,Cochliobolus miyabeanus,1.56 µg/mL
same,MIC,[21],12.5 µg/mL
same,MIC,Salmonella typhi O-901-W,6.25 µg/mL
same,MIC,[22],6.25 µg/mL
same,MIC,[23],12.5 µg/mL
same,MIC,[24],6.25 µg/mL
same,MIC,[25],6.25 µg/mL
same,MIC,[26],6.25 µg/mL
same,MIC,[27],1.56 µg/mL
"O=[N+]([O-])c1cc(Cl)n(CC(I)=C(I)I)c1 [1-(2',3',3'-triiodoallyl)-2-chloro-4-nitropyrrole]",MIC,[1],0.78 µg/mL
same,MIC,[28],6.25 µg/mL
same,MIC,[3],12.5 µg/mL
same,MIC,[4],1.56 µg/mL
same,MIC,Mucor spinescens IAM Mu3,3.13 µg/mL
same,MIC,[5],6.25 µg/mL
same,MIC,[10],1.56 µg/mL
same,MIC,[12],0.39 µg/mL
same,MIC,[16],3.13 µg/mL
same,MIC,Proteus vulgaris OX-19,12.5 µg/mL
same,MIC,[17],12.5 µg/mL
same,MIC,[18],1.56 µg/mL
same,MIC,[29],6.25 µg/mL
same,MIC,[22],0.2 µg/mL
same,MIC,[23],12.5 µg/mL
same,MIC,[25],12.5 µg/mL
same,MIC,[26],6.25 µg/mL
